The values that follow come from ChEMBL document CHEMBL5543097, “Synthesis and structure-activity relationships of novel 14-membered 2-fluoro ketolides with structural modification at the C11 position” (Eur J Med Chem, 2024).

Data set [1] relates to Moraxella catarrhalis. The data set is described as follows: Antibacterial activity against Moraxella catarrhalis BCA 19-6 assessed as inhibition of bacterial growth incubated for 24 hrs by CLSI based broth microdilution method. The class given is functional. Particulars: Moraxella catarrhalis, BCA 19-6, 24 h, read-out: MIC.
Data set [2] has as its system Staphylococcus epidermidis. The data set is described as follows: Potency index, ratio of telithromycin MIC to test compound MIC for antibacterial activity against erythromycin-resistant Staphylococcus epidermidis 19-5 assessed as inhibition of visible bacterial growth incubated for 18 hrs by broth microdilution method. The class given is functional.
For data set [3], the system named is Streptococcus pyogenes. Briefly: Antibacterial activity against erythromycin-resistant Streptococcus pyogenes ATCC 19615 assessed as inhibition of visible bacterial growth incubated for 18 hrs by broth microdilution method. The class given is functional. On the technique in general: Dilution methods test growth across graded concentrations, often in twofold steps.

For data set [4], the system named is Staphylococcus epidermidis. The data set is described as follows: Antibacterial activity against erythromycin-resistant Staphylococcus epidermidis 19-11 assessed as inhibition of visible bacterial growth incubated for 18 hrs by broth microdilution method. The class given is functional.
Data set [5] relates to Staphylococcus epidermidis. The data set is described as follows: Antibacterial activity against erythromycin-resistant Staphylococcus epidermidis 19-8 assessed as inhibition of visible bacterial growth incubated for 18 hrs by broth microdilution method. The data set is classed as functional.
For data set [6], the system named is Streptococcus pneumoniae. Briefly: Antibacterial activity against erythromycin-resistant Streptococcus pneumoniae SPN19-8 assessed as inhibition of visible bacterial growth incubated for 18 hrs by broth microdilution method. The class given is functional.
The subject of data set [7] is Staphylococcus epidermidis. The data set is described as follows: Potency index, ratio of telithromycin MIC to test compound MIC for antibacterial activity against erythromycin-resistant Staphylococcus epidermidis 19-6 assessed as inhibition of visible bacterial growth incubated for 18 hrs by broth microdilution method. The class given is functional.
The test system of data set [8] is Streptococcus pneumoniae. Briefly: Potency index, ratio of telithromycin MIC to test compound MIC for antibacterial activity against Streptococcus pneumoniae SPN19-13 assessed as inhibition of visible bacterial growth incubated for 18 hrs by broth microdilution method. The class given is functional.
For data set [9], the system named is Streptococcus pneumoniae. The data set is described as follows: Antibacterial activity against erythromycin-resistant Streptococcus pneumoniae SPN19-14 assessed as inhibition of visible bacterial growth incubated for 18 hrs by broth microdilution method. The data set is classed as functional.
Data set [10] deals with Staphylococcus epidermidis. Briefly: Potency index, ratio of telithromycin MIC to test compound MIC for antibacterial activity against erythromycin-resistant Staphylococcus epidermidis 19-9 assessed as inhibition of visible bacterial growth incubated for 18 hrs by broth microdilution method. The data set is classed as functional.
The subject of data set [11] is Streptococcus pneumoniae. The data set is described as follows: Potency index, ratio of telithromycin MIC to test compound MIC for antibacterial activity against Streptococcus pneumoniae SPN19-14 assessed as inhibition of visible bacterial growth incubated for 18 hrs by broth microdilution method. The data set is classed as functional.
Data set [12] relates to Enterococcus faecium. Briefly: Antibacterial activity against vancomycin-resistant Enterococcus faecium assessed as inhibition of visible bacterial growth. The class given is functional.
The test system of data set [13] is Staphylococcus epidermidis. Briefly: Potency index, ratio of telithromycin MIC to test compound MIC for antibacterial activity against erythromycin-resistant Staphylococcus epidermidis 19-4 assessed as inhibition of visible bacterial growth incubated for 18 hrs by broth microdilution method. The class given is functional.
Data set [14] relates to Haemophilus influenzae. Briefly: Antibacterial activity against Haemophilus influenzae HIN 19-18 assessed as inhibition of bacterial growth incubated for 20 to 24 hrs by CLSI based broth microdilution method. The data set is classed as functional. The following applies: HIN 19-18, time 20-24 hrs.
For data set [15], the system named is Moraxella catarrhalis. The data set is described as follows: Antibacterial activity against Moraxella catarrhalis BCA 19-5 assessed as inhibition of bacterial growth incubated for 24 hrs by CLSI based broth microdilution method. The class given is functional. The following applies: Moraxella catarrhalis, BCA 19-5, 24 h, read-out: MIC.
The subject of data set [16] is Staphylococcus epidermidis. The data set is described as follows: Potency index, ratio of telithromycin MIC to test compound MIC for antibacterial activity against erythromycin-resistant Staphylococcus epidermidis 19-8 assessed as inhibition of visible bacterial growth incubated for 18 hrs by broth microdilution method. The data set is classed as functional.
Data set [17] deals with Streptococcus pneumoniae. Briefly: Antibacterial activity against erythromycin-resistant Streptococcus pneumoniae SPN19-13 assessed as inhibition of visible bacterial growth incubated for 18 hrs by broth microdilution method. The class given is functional.
Data set [18] deals with Moraxella catarrhalis. Briefly: Antibacterial activity against Moraxella catarrhalis BCA 19-31 assessed as inhibition of bacterial growth incubated for 24 hrs by CLSI based broth microdilution method. The class given is functional. The following applies: BCA 19-31, 24 h.
For data set [19], the system named is Haemophilus influenzae. Briefly: Antibacterial activity against Haemophilus influenzae HIN 19-15 assessed as inhibition of bacterial growth incubated for 20 to 24 hrs by CLSI based broth microdilution method. Particulars: time 20-24 hrs. The data set is classed as functional.
Data set [20] concerns Staphylococcus epidermidis. Briefly: Antibacterial activity against erythromycin-resistant Staphylococcus epidermidis 19-6 assessed as inhibition of visible bacterial growth incubated for 18 hrs by broth microdilution method. The data set is classed as functional.
Data set [21] has as its system Staphylococcus epidermidis. The data set is described as follows: Potency index, ratio of telithromycin MIC to test compound MIC for antibacterial activity against erythromycin-resistant Staphylococcus epidermidis 19-11 assessed as inhibition of visible bacterial growth incubated for 18 hrs by broth microdilution method. The class given is functional.
In data set [22] the test system is Staphylococcus epidermidis. The data set is described as follows: Antibacterial activity against erythromycin-resistant Staphylococcus epidermidis 19-9 assessed as inhibition of visible bacterial growth incubated for 18 hrs by broth microdilution method. The class given is functional.
Data set [23] has as its system Staphylococcus aureus. The data set is described as follows: Antibacterial activity against Staphylococcus aureus ATCC 700699 assessed as inhibition of visible bacterial growth. The class given is functional.
In data set [24] the test system is Streptococcus agalactiae. Briefly: Antibacterial activity against erythromycin-resistant Streptococcus agalactiae 19-8 assessed as inhibition of visible bacterial growth incubated for 18 hrs by broth microdilution method. The class given is functional.
Data set [25] has as its system Staphylococcus epidermidis. The data set is described as follows: Antibacterial activity against erythromycin-resistant Staphylococcus epidermidis 19-4 assessed as inhibition of visible bacterial growth incubated for 18 hrs by broth microdilution method. The class given is functional.
In data set [26] the test system is Streptococcus pneumoniae. Briefly: Potency index, ratio of telithromycin MIC to test compound MIC for antibacterial activity against Streptococcus pneumoniae SPN19-8 assessed as inhibition of visible bacterial growth incubated for 18 hrs by broth microdilution method. The data set is classed as functional.
Data set [27] relates to Streptococcus agalactiae. The data set is described as follows: Antibacterial activity against erythromycin-resistant Streptococcus agalactiae 19-9 assessed as inhibition of visible bacterial growth incubated for 18 hrs by broth microdilution method. The class given is functional.
Data set [28] relates to Staphylococcus epidermidis. The data set is described as follows: Antibacterial activity against erythromycin-resistant Staphylococcus epidermidis 19-5 assessed as inhibition of visible bacterial growth incubated for 18 hrs by broth microdilution method. The data set is classed as functional.
Data set [29] can be described thus: Cytotoxicity against mouse AML12 cells assessed as reduction in cell viability incubated for 48 hrs by MTT assay. The class given is toxicity, cell-based. (Formazan colour is commonly taken as a measure of viable cells.)
The test system of data set [30] is Enterococcus faecalis. The data set is described as follows: Antibacterial activity against Enterococcus faecalis ATCC 51575 assessed as inhibition of visible bacterial growth. The class given is functional, organism-based.

Structures are written as SMILES. Values after ≈ are worked out from the molar mass of the structure shown. Active and inactive are the calls of the source. No cut-off for these calls is given here.

On to `CC[C@H]1OC(=O)[C@@](C)(F)C(=O)[C@H](C)[C@@H](O[C@@H]2O[C@H](C)C[C@H](N(C)C)[C@H]2O)[C@](C)(OC)C[C@@H](C)C(=O)[C@H](C)[C@H]2N(CCCOC(=O)Nc3ccc4ccccc4c3)C(=O)O[C@]12C`, for which the MIC in data set [1] is less than 0.03 µg/mL; in [3], less than 0.03 µg/mL; in [4], less than 0.03 µg/mL; in [5], less than 0.03 µg/mL; in [6], 0.25 µg/mL (≈ 0.291 µM); in data set [9] it was less than 0.03 µg/mL. Also, the MIC in [12] was 16 µg/mL (≈ 18.6 µM); in data set [14], 2 µg/mL (≈ 2.33 µM); in [15] it was less than 0.03 µg/mL; in [17], less than 0.03 µg/mL; in [18] it was less than 0.03 µg/mL; in data set [19], 8 µg/mL (≈ 9.32 µM). The MIC in [20] is less than 0.03 µg/mL; in data set [22], 0.125 µg/mL (≈ 0.146 µM); in data set [23], 16 µg/mL (≈ 18.6 µM); in data set [24], less than 0.03 µg/mL; in data set [25], less than 0.03 µg/mL; in [27], 0.5 µg/mL (≈ 0.583 µM). The MIC in data set [28] is less than 0.03 µg/mL. In addition, the Ratio in [2] is 4; in data set [7] it was 4; in data set [8] it was less than 4; in data set [10], 4; in data set [11], less than 4; in [13], 4. For the same compound, the Ratio in data set [16] was 4; in data set [21] it was 4; in data set [26], less than 4. In addition, the CC50 – broadly, the concentration at which the toxic effect on the cells reaches its halfway point – at 48 h in data set [29] came to 18.5 µM.

On to `CC[C@H]1OC(=O)[C@H](C)C(=O)[C@H](C)[C@@H](O[C@@H]2O[C@H](C)C[C@H](N(C)C)[C@H]2O)[C@](C)(OC)C[C@@H](C)C(=O)[C@H](C)[C@H]2N(CCCCn3cnc(-c4cccnc4)c3)C(=O)O[C@]12C` [TELITHROMYCIN], for which the MIC in data set [1] was 0.25 µg/mL (≈ 0.308 µM); in data set [3], less than 0.03 µg/mL; in [4], 0.25 µg/mL (≈ 0.308 µM); in data set [5] it was more than 64 µg/mL; in [6], 0.5 µg/mL (≈ 0.616 µM); in data set [9], 0.25 µg/mL (≈ 0.308 µM). In addition, the MIC is 4 µg/mL (≈ 4.93 µM) in [14]; 0.25 µg/mL (≈ 0.308 µM) in [15]; 0.25 µg/mL (≈ 0.308 µM) in data set [17]; 0.25 µg/mL (≈ 0.308 µM) in [18]; 4 µg/mL (≈ 4.93 µM) in [19]; 64 µg/mL (≈ 78.8 µM) in data set [20]. Moreover, the MIC is 0.5 µg/mL (≈ 0.616 µM) in [22]; 16 µg/mL (≈ 19.7 µM) in [23]; less than 0.03 µg/mL in data set [24]; more than 64 µg/mL in data set [25]; 0.125 µg/mL (≈ 0.154 µM) in [27]; 0.25 µg/mL (≈ 0.308 µM) in data set [28]. Further, in data set [29], the cytotoxic concentration (CC50) at 48 h was more than 100 µM.

For the compound `CC[C@H]1OC(=O)[C@@](C)(F)C(=O)[C@H](C)[C@@H](O[C@@H]2O[C@H](C)C[C@H](N(C)C)[C@H]2O)[C@](C)(OC)C[C@@H](C)C(=O)[C@H](C)[C@H]2N(CCCOC(=O)Nc3ccc(C(C)C)cc3)C(=O)O[C@]12C`, the MIC was 0.25 µg/mL (≈ 0.294 µM) in [1]; less than 0.03 µg/mL in [3]; 0.25 µg/mL (≈ 0.294 µM) in data set [4]; less than 0.03 µg/mL in data set [5]; 2 µg/mL (≈ 2.35 µM) in data set [6]; 1 µg/mL (≈ 1.18 µM) in data set [9]. The MIC is 16 µg/mL (≈ 18.8 µM) in [12]; 16 µg/mL (≈ 18.8 µM) in data set [14]; 0.5 µg/mL (≈ 0.588 µM) in [15]; 1 µg/mL (≈ 1.18 µM) in data set [17]; 1 µg/mL (≈ 1.18 µM) in [18]; 0.25 µg/mL (≈ 0.294 µM) in data set [20]. Further, the MIC in data set [22] was 1 µg/mL (≈ 1.18 µM); in data set [24], less than 0.03 µg/mL; in [25], 0.125 µg/mL (≈ 0.147 µM); in data set [27], 4 µg/mL (≈ 4.71 µM); in data set [28], less than 0.03 µg/mL. The outcome in [30] was Active. Also, in data set [29], the CC50 at 48 h came to 25.5 µM.
